Here are results for three compounds from patent US11286246B2, “Pro-drugs and related methods” (Aposense LTD., priority 2015, dated 2022).

Common to all, as to format: physicochemical
Data set [1] in a line: Reduction-induced cleavage with excess dithiothreitol (15 equiv), HPLC/MS. The following applies: 15 equiv DTT, DMSO/phosphate buffer pH 7, 37° C., argon. The method, then:
Dithiothreitol (DTT) is a reducing agent; once oxidized, it forms a stable six-membered ring, with an internal disulfide bond. Disulfide compound A was treated with excess dithiothreitol (15 equiv, aq. 0.5M, pH adjusted to 7 with phosphate buffer solution) in DMSO and phosphate buffer solution (pH 7) at 37° C. under an argon atmosphere. Two sets of samples were analyzed by HPLC/MS: at 6 and at 24 hours.
As expected, the peak at 24 hours was of larger amplitude (70% vs. 30%).

Data set [2] can be described thus: Reduction-induced cleavage with one equivalent of TCEP, HPLC-MS. The following applies: room temperature, 18 hours. The method, then: (§1) A DMSO solution of Compound 5 was incubated at room temperature for 24 hours. […] The Compound was then incubated at room temperature with one equivalent of the reducing agent tris (2-carboxyethyl) phosphine (TCEP). […] Intact Compound 5; (ii). a product corresponding to Compound 5 with two reduced thiol groups (Product 1); (iii). a product corresponding to cleaved Fragment A; and (iv). a product corresponding to cleaved Fragment B.
(§2) However, in reductive conditions, conversion of the disulfide into free thiol groups takes place. Importantly, this step is evidently followed by an intramolecular reaction, with molecular cleavage at the carbamate moiety, conceivably related to nucleophilic attack on the respective carbonyl by a thiol or a thiolate group, conveniently located at the sixth atom position. Therefore, the Compound manifests selective reduction-dependent cleavage. The site of the nucleophilic attack is described in the following Scheme 4: […]

The nature of data set [3]: Stability of Compound 5 in DMSO solution (non-reductive environment), HPLC-MS. The following applies: room temperature, 24 hours, no reducing agent. The method, then:
as §1, §2

The nature of data set [4]: Reduction-induced cleavage with 100 equivalents of DTT, HPLC/MS. The following applies: 100 equiv DTT, DMSO/aqueous buffer pH 7.0, 37° C., argon. The method, then: The experiment comprised incubation of Compound B with 100 equivalents of the reducing agent DTT (0.1 mL of 2 M solution), 1.0 mL DMSO in aqueous buffer (pH=7.0), at 37° C. under argon atmosphere. Three sets of samples were analyzed by HPLC/MS: at 1 hour, 6 hours, and at 24 hours. […] This structure was thereafter maintained throughout the experiment.
Importantly however, HPLC/MS also indicated the formation of Compound B3, indicating cleavage of Compound B2, at the carbamate bond, with release of the phenolic moiety, Compound B3:
There was evidence for such cleavage, with release of Compound B3, already at one hour of incubation, where 30% cleavage was detected. This increased to 90% of cleaved product at 6 hours, and full cleavage by 24 hours.

For `CCCCCCN(C(=O)Oc1ccccc1)[C@H]1CCSSC1` [Compound A], in data set [1] (6 hours), the “cleavage (peak amplitude of cleavage product A3)” value came out at 30% and the “reduction of the disulphide bond (A2)” value is on record as “clearly visible”. The “cleavage (peak amplitude of cleavage product A3)” value in data set [1] (24 hours) stood at 70%.

For the compound `C[C@]12CC[C@@H]3c4ccc(OC(=O)N(CCCCCCO)C5CCSSC5)cc4CC[C@H]3[C@@H]1CC[C@@H]2OCCCOC(C(F)(F)F)(C(F)(F)F)C(F)(F)F` (stereo partly drawn) [Compound 5], the “HPLC-MS products after incubation with reducing agent (intact compound, reduced Product 1, cleaved Fragment A, cleaved Fragment B)” value in data set [2] is “four distinct peaks”. Moreover, in data set [3], the “stability of the DMSO solution by HPLC-MS” value was “stable and intact”.

As for `C[C@]12CC[C@@H]3c4cc(F)c(OC(=O)N(CCCO)C5CCSSC5)cc4CC[C@H]3[C@@H]1CC[C@@H]2OCCCOC(C(F)(F)F)(C(F)(F)F)C(F)(F)F` (stereo partly drawn) [Compound B], the “cleavage with release of Compound B3” value in data set [4] (6 hours) is listed as 90%; in data set [4] (24 hours) it was “full cleavage”; in data set [4] (one hour), 30%. Besides, in data set [4] (one hour), the “reduction of the disulphide bond (conversion of Compound B to Compound B2)” value is recorded as “full conversion”.
